{"source": "patent US20250144094A1", "about": "(Erasca, Inc., priority 2021, published 2025)"}
{"biological_target": "T1, Recombinant human ULK1 (1-649) (Homo sapiens (Human), UniProt O75385)", "T1 sequence (O75385 1-649)": "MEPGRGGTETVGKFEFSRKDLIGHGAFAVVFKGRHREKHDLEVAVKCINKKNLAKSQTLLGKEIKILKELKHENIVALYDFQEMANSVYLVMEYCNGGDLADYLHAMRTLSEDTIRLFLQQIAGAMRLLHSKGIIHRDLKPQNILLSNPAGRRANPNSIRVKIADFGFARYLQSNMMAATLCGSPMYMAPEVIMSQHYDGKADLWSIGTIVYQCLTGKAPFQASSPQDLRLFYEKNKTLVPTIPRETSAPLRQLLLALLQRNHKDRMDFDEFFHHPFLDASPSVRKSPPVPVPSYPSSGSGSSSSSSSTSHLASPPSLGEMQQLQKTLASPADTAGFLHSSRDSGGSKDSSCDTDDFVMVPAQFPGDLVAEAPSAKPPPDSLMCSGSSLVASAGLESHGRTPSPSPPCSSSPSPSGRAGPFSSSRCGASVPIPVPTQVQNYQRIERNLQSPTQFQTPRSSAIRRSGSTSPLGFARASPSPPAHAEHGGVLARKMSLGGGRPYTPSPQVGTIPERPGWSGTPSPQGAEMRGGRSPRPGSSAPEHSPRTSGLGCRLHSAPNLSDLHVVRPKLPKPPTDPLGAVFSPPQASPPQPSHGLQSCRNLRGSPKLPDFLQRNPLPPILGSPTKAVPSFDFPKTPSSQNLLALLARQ", "assay": "ULK1 ADP Glo kinase activity assay, new method (ULKtide peptide substrate)", "settings": "25° C., 40 minutes, read-out: ULK1 biochemical IC50", "outline": "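Kinase activity was read as ADP production (ADP-Glo, luminescence 30 min after detection reagent) following a 40-min, 25 °C reaction of Sf9-expressed GST-ULK1 (1-649) with ULKtide substrate and ATP. Compounds ran as 12-point series starting at 10 μM; four-parameter curve fitting versus DMSO wells gave IC50.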", "units": {"IC50": "nM"}}
{"smiles": "CCc1cc(N2CCN(C)[C@@H](CO)C2)ccc1Nc1ncc(C(F)(F)F)c(-c2cc3c(s2)C(=O)N(C2COC2)CCS3(=O)=O)n1", "note": "[Example 409, (R)-7-(2-((2-Ethyl-4-(3-(hydroxymethyl)-4-methylpiperazin-1-yl)phenyl)amino)-5-(trifluoromethyl)pyrimidin-4-yl)-4-(oxetan-3-yl)-3,4-dihydrothieno[2,3-f][1,4]thiazepin-5(2H)-one 1,1-dioxide]", "IC50": "≤ 5"}
{"biological_target": "T1, Recombinant human ULK1 (1-649)", "assay": "ULK1 ADP Glo kinase activity assay (MBP substrate)", "settings": "25° C., 40 minutes, read-out: ULK1 biochemical IC50", "protocol": "Recombinant human ULK1 (1-649) protein expressed in Sf9 insect cells was obtained from SignalChem (Vancouver, BC), catalog #U01-11G. Active kinase was purified via N-terminal GST tag to >85% purity.\nADP GLO Kinase Assay Reagents were obtained from Promega Corp (Madison, WI), catalog #V9104.\nMBP (myelin basic protein) substrate, bovine, purified, was obtained from Sigma (St. Louis, MO), catalog #M1891.\nULK1 inhibitor potency was determined using the luminescent ADP Glo Kinase Assay (Promega), a universal ADP detection system that measures kinase activity by quantifying the amount of ADP produced during a kinase reaction. ULK1 kinase reactions are performed in a standard 96-well microplate (20 uL reaction volume) at 25° C. for 40 minutes in the presence or absence of the test compound (12-point dilution series starting at 10 uM). Addition of MBP substrate and ATP initiates the kinase reaction.\nThe standard ADP Glo assay is performed in two steps. In step one, following the kinase reaction, an equal volume of ADP-Glo™ Reagent (20 uL) is added to terminate the kinase reaction and deplete the remaining ATP. In the second step, the Kinase Detection Reagent (10 uL) is added to simultaneously convert ADP to ATP and allow the newly synthesized ATP to be measured using a luciferase/luciferin reaction. Step two of the ADP Glo assay is performed in a white 384-well plate (20 uL final volume). Thirty minutes after the addition of the Detection reagent, light generated from the luciferase reaction is measured (1 second exposure) using a microplate compatible luminometer (CLARIOstar, BMG Labtech).\nInhibition of ULK1 kinase activity is determined for each test compound by comparison to DMSO only control wells. Inhibitor IC50 was calculated by plotting the change in luminescence after 30 minutes (response) versus inhibitor concentration (in log molar) then applying the four-parameter variable slope curve fit (GraphPad Prism). Inhibition of ULK1 in biochemical assay is found in Table 3.", "units": {"IC50": "nM"}}
{"smiles": "NC(=O)c1csc(-c2nc(Nc3cc4c(cc3Cl)CNCC4)ncc2C(F)(F)F)c1", "note": "[Example 1, 5-(2-((7-chloro-1,2,3,4-tetrahydroisoquinolin-6-yl)amino)-5-(trifluoromethyl)pyrimidin-4-yl)thiophene-3-carboxamide]", "IC50": "≤ 10"}
{"smiles": "CN(C)C(=O)c1csc(-c2nc(Nc3cc4c(cc3Cl)CNCC4)ncc2C(F)(F)F)c1", "note": "[Example 2, 5-(2-((7-chloro-1,2,3,4-tetrahydroisoquinolin-6-yl)amino)-5-(trifluoromethyl)pyrimidin-4-yl)-N,N-dimethylthiophene-3-carboxamide]", "IC50": "10 to 50"}
{"smiles": "CN(C)C(=O)c1ccc(-c2nc(Nc3cc4c(cc3Cl)CNCC4)ncc2C(F)(F)F)s1", "note": "[Example 3, 5-(2-((7-chloro-1,2,3,4-tetrahydroisoquinolin-6-yl)amino)-5-(trifluoromethyl)pyrimidin-4-yl)-N,N-dimethylthiophene-2-carboxamide]", "IC50": "≤ 10"}
{"smiles": "O=C1NCCc2sc(-c3nc(Nc4cc5c(cc4Cl)CNCC5)ncc3C(F)(F)F)cc21", "note": "[Example 4, 2-(2-((7-chloro-1,2,3,4-tetrahydroisoquinolin-6-yl)amino)-5-(trifluoromethyl)pyrimidin-4-yl)-6,7-dihydrothieno[3,2-c]pyridin-4(5H)-one]", "IC50": "≤ 10"}
{"smiles": "NC(=O)c1csc(-c2nc(Nc3cc4c(cc3Cl)CN(C3CNC3)CC4)ncc2C(F)(F)F)c1", "note": "[Example 5, 5-(2-((2-(azetidin-3-yl)-7-chloro-1,2,3,4-tetrahydroisoquinolin-6-yl)amino)-5-(trifluoromethyl)pyrimidin-4-yl)thiophene-3-carboxamide]", "IC50": "≤ 10"}
{"smiles": "CNC(=O)c1csc(-c2nc(Nc3cc4c(cc3Cl)CNCC4)ncc2C(F)(F)F)c1", "note": "[Example 6, 5-(2-((7-chloro-1,2,3,4-tetrahydroisoquinolin-6-yl)amino)-5-(trifluoromethyl)pyrimidin-4-yl)-N-methylthiophene-3-carboxamide]", "IC50": "50 to 100"}
{"smiles": "NC(=O)c1csc(-c2nc(Nc3cc4c(cc3Cl)CNC4)ncc2C(F)(F)F)c1", "note": "[Example 7, 5-(2-((6-chloroisoindolin-5-yl)amino)-5-(trifluoromethyl)pyrimidin-4-yl)thiophene-3-carboxamide]", "IC50": "≤ 10"}
{"smiles": "FC(F)(F)c1cnc(Nc2cc3c(cc2Cl)CNCC3)nc1-c1cc(C2=NCCO2)cs1", "note": "[Example 8, 7-chloro-N-(4-(4-(4,5-dihydrooxazol-2-yl)thiophen-2-yl)-5-(trifluoromethyl)pyrimidin-2-yl)-1,2,3,4-tetrahydroisoquinolin-6-amine]", "IC50": "10 to 50"}
{"smiles": "CCc1cc2c(cc1Nc1ncc(C(F)(F)F)c(-c3cc(C(N)=O)cs3)n1)CCNC2", "note": "[Example 9, 5-(2-((7-ethyl-1,2,3,4-tetrahydroisoquinolin-6-yl)amino)-5-(trifluoromethyl)pyrimidin-4-yl)thiophene-3-carboxamide]", "IC50": "≤ 10"}
{"smiles": "NC(=O)c1csc(-c2nc(Nc3cc4c(cc3C3CC3)CNCC4)ncc2C(F)(F)F)c1", "note": "[Example 10, 5-(2-((7-cyclopropyl-1,2,3,4-tetrahydroisoquinolin-6-yl)amino)-5-(trifluoromethyl)pyrimidin-4-yl)thiophene-3-carboxamide]", "IC50": "≤ 10"}
{"smiles": "CN1CC(N2CCc3cc(Nc4ncc(C(F)(F)F)c(-c5cc(C(N)=O)cs5)n4)c(Cl)cc3C2)C1", "note": "[Example 11, 5-(2-((7-chloro-2-(1-methylazetidin-3-yl)-1,2,3,4-tetrahydroisoquinolin-6-yl)amino)-5-(trifluoromethyl)pyrimidin-4-yl)thiophene-3-carboxamide]", "IC50": "10 to 50"}
{"smiles": "CN1CC(N2Cc3cc(Cl)c(Nc4ncc(C(F)(F)F)c(-c5cc(C(N)=O)cs5)n4)cc3C2)C1", "note": "[Example 12, 5-(2-((6-chloro-2-(1-methylazetidin-3-yl)isoindolin-5-yl)amino)-5-(trifluoromethyl)pyrimidin-4-yl)thiophene-3-carboxamide]", "IC50": "≤ 10"}
{"smiles": "CCc1cc2c(cc1Nc1ncc(C(F)(F)F)c(-c3cc(C(N)=O)cs3)n1)CCN(C)C2", "note": "[Example 13, 5-(2-((7-ethyl-2-methyl-1,2,3,4-tetrahydroisoquinolin-6-yl)amino)-5-(trifluoromethyl)pyrimidin-4-yl)thiophene-3-carboxamide]", "IC50": "≤ 10"}
{"smiles": "CN1CCc2cc(Nc3ncc(C(F)(F)F)c(-c4cc(C(N)=O)cs4)n3)c(C3CC3)cc2C1", "note": "[Example 14, 5-(2-((7-cyclopropyl-2-methyl-1,2,3,4-tetrahydroisoquinolin-6-yl)amino)-5-(trifluoromethyl)pyrimidin-4-yl)thiophene-3-carboxamide]", "IC50": "≤ 10"}
{"smiles": "Nc1csc(-c2nc(Nc3cc4c(cc3Cl)CNCC4)ncc2C(F)(F)F)c1", "note": "[Example 15, N-(4-(4-aminothiophen-2-yl)-5-(trifluoromethyl)pyrimidin-2-yl)-7-chloro-1,2,3,4-tetrahydroisoquinolin-6-amine]", "IC50": "10 to 50"}
{"smiles": "CS(=O)(=O)Nc1csc(-c2nc(Nc3cc4c(cc3Cl)CNCC4)ncc2C(F)(F)F)c1", "note": "[Example 16, N-(5-(2-((7-chloro-1,2,3,4-tetrahydroisoquinolin-6-yl)amino)-5-(trifluoromethyl)pyrimidin-4-yl)thiophen-3-yl)methanesulfonamide]", "IC50": "≤ 10"}
{"smiles": "CN1Cc2cc(Cl)c(Nc3ncc(C(F)(F)F)c(-c4cc(C(N)=O)cs4)n3)cc2C1", "note": "[Example 17, 5-(2-((6-Chloro-2-methylisoindolin-5-yl)amino)-5-(trifluoromethyl)pyrimidin-4-yl)thiophene-3-carboxamide]", "IC50": "≤ 10"}
{"smiles": "FC(F)(F)c1cnc(Nc2cc3c(cc2Cl)CNCC3)nc1-c1cc(-c2ncco2)cs1", "note": "[Example 18, 7-Chloro-N-(4-(4-(oxazol-2-yl)thiophen-2-yl)-5-(trifluoromethyl)pyrimidin-2-yl)-1,2,3,4-tetrahydroisoquinolin-6-amine]", "IC50": "10 to 50"}
{"smiles": "CN1Cc2cc(Nc3ncc(C(F)(F)F)c(-c4cc(C(N)=O)cs4)n3)c(C3CC3)cc2C1", "note": "[Example 19, 5-(2-((6-Cyclopropyl-2-methylisoindolin-5-yl)amino)-5-(trifluoromethyl)pyrimidin-4-yl)thiophene-3-carboxamide]", "IC50": "≤ 10"}
{"smiles": "CCc1cc2c(cc1Nc1ncc(C(F)(F)F)c(-c3cc(C(N)=O)cs3)n1)CN(C)C2", "note": "[Example 20, 5-(2-((6-Ethyl-2-methylisoindolin-5-yl)amino)-5-(trifluoromethyl)pyrimidin-4-yl)thiophene-3-carboxamide]", "IC50": "10 to 50"}
{"smiles": "CN1CCc2sc(-c3nc(Nc4cc5c(cc4Cl)CNCC5)ncc3C(F)(F)F)cc2C1=O", "note": "[Example 21, 2-(2-((7-Chloro-1,2,3,4-tetrahydroisoquinolin-6-yl)amino)-5-(trifluoromethyl)pyrimidin-4-yl)-5-methyl-6,7-dihydrothieno[3,2-c]pyridin-4(5H)-one]", "IC50": "≤ 10"}
{"smiles": "CCN1CCc2sc(-c3nc(Nc4cc5c(cc4Cl)CNCC5)ncc3C(F)(F)F)cc2C1=O", "note": "[Example 22, 2-(2-((7-chloro-1,2,3,4-tetrahydroisoquinolin-6-yl)amino)-5-(trifluoromethyl)pyrimidin-4-yl)-5-ethyl-6,7-dihydrothieno[3,2-c]pyridin-4(5H)-one]", "IC50": "≤ 10"}
{"smiles": "O=c1[nH]ccc2sc(-c3nc(Nc4cc5c(cc4Cl)CNCC5)ncc3C(F)(F)F)cc12", "note": "[Example 23, 2-(2-((7-Chloro-1,2,3,4-tetrahydroisoquinolin-6-yl)amino)-5-(trifluoromethyl)pyrimidin-4-yl)thieno[3,2-c]pyridin-4(5H)-one]", "IC50": "≤ 10"}
{"smiles": "O=c1[nH]ncc2sc(-c3nc(Nc4cc5c(cc4Cl)CNCC5)ncc3C(F)(F)F)cc12", "note": "[Example 24, 2-(2-((7-Chloro-1,2,3,4-tetrahydroisoquinolin-6-yl)amino)-5-(trifluoromethyl)pyrimidin-4-yl)thieno[2,3-d]pyridazin-4(5H)-one]", "IC50": "10 to 50"}
{"smiles": "N#Cc1csc(-c2nc(Nc3cc4c(cc3Cl)CNCC4)ncc2C(F)(F)F)c1", "note": "[Example 25, 5-(2-((7-Chloro-1,2,3,4-tetrahydroisoquinolin-6-yl)amino)-5-(trifluoromethyl)pyrimidin-4-yl)thiophene-3-carbonitrile]", "IC50": "10 to 50"}
{"smiles": "NC(=O)c1csc(-c2nc(Nc3cc4c(cc3Cl)CNCC4)ncc2C(N)=O)c1", "note": "[Example 26, 4-(4-Carbamoylthiophen-2-yl)-2-((7-chloro-1,2,3,4-tetrahydroisoquinolin-6-yl)amino)pyrimidine-5-carboxamide]", "IC50": "> 500"}
